Reference: patent US20130190190A1, “MOLECULAR TARGETS FOR MODULATING INTRAOCCULAR PRESSURE AND DIFFERENTIATION OF STEROID RESPONSES VERSUS NON-RESPONDERS” (priority 2007, published 2013)

Assay: Intraocular pressure (IOP) change in study eyes of patients after a single intravitreal triamcinolone acetonide (IVTA) injection
Assay type: in vivo, human
Conditions: 56 eyes
Procedure: Patients who were recruited were offered treatment with IVTA for various retinal diseases or who had received IVTA in the past. Each patient was treated with IVTA, 4 mg in 0.1 cc, for a variety of indications, at the discretion of the treating physician. Inclusion criteria included age greater than 18 years and the ability to give appropriate informed consent. Exclusion criteria included prior pars plana vitrectomy in the study eye, anterior-segment neovascularization in the study eye, the use of any medication intended to lower IOP in the study eye, or a history of glaucoma, suspected glaucoma, or ocular hypertension in the study eye. All IOP measurements were as per the treating physician's standard practice, typically either applanation tonometry or Tono-pen (Reichert, Depew, N.Y.). No standardized IOP measurement protocol was followed. Intraocular pressure (TOP) was recorded in the study eye prior to treatment with IVTA (baseline IOP). Follow-up was performed at the discretion of the treating physician. On each subsequent visit, IOP was recorded (follow-up IOP) for up to 1 year, or until the study eye was treated with any subsequent intraocular surgery, any subsequent intravitreal injection, or any medication intended to lower IOP. Therefore, during the time period relevant to this study, each eye received only one intravitreal injection. All treatment decisions were at the discretion of the treating physician. The highest follow-up IOP was recorded (maximum IOP). The primary outcome measure was the difference between maximum IOP and baseline IOP was calculated (A IOP), with a positive value indicating a rise in IOP.

**Q.** For `CC1(C)O[C@@H]2C[C@H]3[C@@H]4CCC5=CC(=O)C=C[C@]5(C)[C@@]4(F)[C@@H](O)C[C@]3(C)[C@]2(C(=O)CO)O1` [IVTA, triamcinolone acetonide], which “Mean Δ IOP (maximum IOP minus baseline IOP)” value (IVTA 4 mg in 0.1 cc intravitreal, follow-up up to 1 year, positive value = rise in IOP) is on record?
**A.** 7 mmHg

**Q.** What about the “Eyes with Δ IOP greater than 10 mmHg” value (IVTA 4 mg intravitreal, follow-up up to 1 year, 9 eyes) of the same compound?
**A.** 16%

**Q.** What about the “Eyes with Δ IOP less than 5 mmHg” value (IVTA 4 mg intravitreal, follow-up up to 1 year, 20 eyes) of the same compound?
**A.** 36%

**Q.** What about the “Eyes with Δ IOP 5-10 mmHg” value (IVTA 4 mg intravitreal, follow-up up to 1 year, 27 eyes) of the same compound?
**A.** 48%

**Q.** What about the “Mean maximum follow-up IOP” value (patients with retinal diseases, IVTA 4 mg in 0.1 cc, one intravitreal injection, highest IOP in follow-up up to 1 year, mean baseline IOP 15 mmHg) of the same compound?
**A.** 22 mmHg
